Results reported in patent US8686150B2 (Sanofi, priority 2011, dated 2014).

The molecules below were run against T1, human full-length recombinant PKC βII (Homo sapiens, UniProt P05771) (assay: Determination of PKC βII inhibition (Caliper mobility-shift kinase assay, Fluorescein-RFARKGSLRQKNV peptide substrate)). Settings: example compounds at a final concentration of 1.14 μM (±0.15 μM).
T1 construct: Active human full-length recombinant PKC βII; purchased Invitrogen GmbH, Darmstadt, Germany
Type: biochemical
Method in brief: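 Compounds were tested at 1.14 μM final. Enzyme was activated by PS, DAG and CaCl2 in Hepes pH 7.4 with MgCl2, with substrate 3 μM and ATP 120 μM as pre-mix concentrations. After 60 min at 32 °C and an EDTA stop, Caliper separation gave fractional turnover, which was normalised to no-compound and no-enzyme controls.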

T1 sequence (P05771 1-673 isoform P05771-2): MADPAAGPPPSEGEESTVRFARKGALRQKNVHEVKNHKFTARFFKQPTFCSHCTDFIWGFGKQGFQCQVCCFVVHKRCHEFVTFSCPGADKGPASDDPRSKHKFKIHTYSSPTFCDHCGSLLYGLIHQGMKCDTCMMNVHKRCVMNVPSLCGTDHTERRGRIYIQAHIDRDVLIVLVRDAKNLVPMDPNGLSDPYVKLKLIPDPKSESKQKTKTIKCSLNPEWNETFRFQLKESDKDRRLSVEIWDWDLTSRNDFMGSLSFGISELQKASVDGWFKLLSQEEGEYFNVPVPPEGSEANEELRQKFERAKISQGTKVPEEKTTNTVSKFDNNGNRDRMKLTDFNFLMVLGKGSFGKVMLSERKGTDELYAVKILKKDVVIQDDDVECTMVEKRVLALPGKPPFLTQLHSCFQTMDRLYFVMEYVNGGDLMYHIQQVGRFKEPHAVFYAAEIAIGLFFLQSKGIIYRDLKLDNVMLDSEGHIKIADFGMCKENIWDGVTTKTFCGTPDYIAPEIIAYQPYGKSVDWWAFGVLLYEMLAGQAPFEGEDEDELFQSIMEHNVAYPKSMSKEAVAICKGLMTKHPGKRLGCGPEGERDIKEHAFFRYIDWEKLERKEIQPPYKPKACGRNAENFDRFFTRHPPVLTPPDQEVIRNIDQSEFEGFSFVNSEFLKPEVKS

| SMILES | inhibition at 1.14 µM | % Inhibition |
| --- | --- | --- |
| Cc1n[nH]c2nc(-c3ccc(O)cc3)cc(C(=O)NC3CC4CCC(C3)N4C)c12 [Example 201, 6-(4-Hydroxy-phenyl)-3-methyl-1H-pyrazolo[3,4-b]pyridine-4-carboxylic acid ((3R)-8-methyl-8-aza-bicyclo[3.2.1]oct-3-yl)-amide] | – | 55% |
| COC(=O)[C@H]1CNCCN1C(=O)c1cc(-c2ccc(O)cc2)nc2[nH]nc(C)c12 [Example 206, (R)-1-[6-(4-Hydroxy-phenyl)-3-methyl-1H-pyrazolo[3,4-b]pyridine-4-carbonyl]-piperazine-2-carboxylic acid methyl ester] | 98% | – |
| Cc1n[nH]c2nc(-c3ccc(O)cc3)cc(C(=O)NC3CN4CCC3CC4)c12 (centres unmarked) [Example 207, 6-(4-Hydroxy-phenyl)-3-methyl-1H-pyrazolo[3,4-b]pyridine-4-carboxylic acid (1-aza-bicyclo[2.2.2]oct-3-yl)-amide] | 94% | – |
| CCCC[C@H]1CN(C(=O)c2cc(-c3ccc(O)cc3)nc3[nH]nc(C)c23)CCN1 [Example 209, ((S)-3-Butyl-piperazin-1-yl)-[6-(4-hydroxy-phenyl)-3-methyl-1H-pyrazolo[3,4-b]pyridin-4-yl]-methanone] | 97% | – |
| COC(=O)[C@H]1CN(C(=O)c2cc(-c3ccc(O)cc3)nc3[nH]nc(C)c23)CCN1 [Example 211, (R)-4-[6-(4-Hydroxy-phenyl)-3-methyl-1H-pyrazolo[3,4-b]pyridine-4-carbonyl]-piperazine-2-carboxylic acid methyl ester] | 64% | – |
| Cc1n[nH]c2nc(-c3ccc(O)cc3)cc(C(=O)N3CCN[C@@H](CC(C)C)C3)c12 [Example 215, [6-(4-Hydroxy-phenyl)-3-methyl-1H-pyrazolo[3,4-b]pyridin-4-yl]-((S)-3-isobutyl-piperazin-1-yl)-methanone] | 99% | – |
| Cc1n[nH]c2nc(-c3ccc(O)cc3)cc(C(=O)N3CCNCC3Cc3ccccc3)c12 (centres unmarked) [Example 217, (2-Benzyl-piperazin-1-yl)-[6-(4-hydroxy-phenyl)-3-methyl-1H-pyrazolo[3,4-b]pyridin-4-yl]-methanone] | 93% | – |
| Cc1n[nH]c2nc(-c3ccc(O)cc3)cc(C(=O)NC3CC4CCC(C3)N4C)c12 (centres unmarked) [Example 219, 6-(4-Hydroxy-phenyl)-3-methyl-1H-pyrazolo[3,4-b]pyridine-4-carboxylic acid (8-methyl-8-aza-bicyclo[3.2.1]oct-3-yl)-amide] | 89% | – |
| Cc1n[nH]c2nc(-c3ccc(O)cc3)cc(C(=O)NC3CC4CCCC(C3)N4C)c12 (centres unmarked) [Example 223, 6-(4-Hydroxy-phenyl)-3-methyl-1H-pyrazolo[3,4-b]pyridine-4-carboxylic acid (9-methyl-9-aza-bicyclo[3.3.1]non-3-yl)-amide] | 74% | – |
| Cc1n[nH]c2nc(-c3ccc(O)cc3)cc(C(=O)N3CCNC[C@H]3Cc3ccccc3)c12 [Example 224, ((R)-2-Benzyl-piperazin-1-yl)-[6-(4-hydroxy-phenyl)-3-methyl-1H-pyrazolo[3,4-b]pyridin-4-yl]-methanone] | 92% | – |
| Cc1n[nH]c2nc(-c3ccc(O)cc3)cc(C(=O)N3CCNC[C@@H]3Cc3ccccc3)c12 [Example 225, ((S)-2-Benzyl-piperazin-1-yl)-[6-(4-hydroxy-phenyl)-3-methyl-1H-pyrazolo[3,4-b]pyridin-4-yl]-methanone] | 85% | – |
| Cc1n[nH]c2nc(-c3ccc(O)cc3)cc(C(=O)N3C[C@H]4CC[C@@H](C3)C4N)c12 (some centres unmarked) [Example 227, (8-Amino-3-aza-bicyclo[3.2.1]oct-3-yl)-[6-(4-hydroxy-phenyl)-3-methyl-1H-pyrazolo[3,4-b]pyridin-4-yl]-methanone] | 100% | – |
| Cc1n[nH]c2nc(-c3ccc(O)cc3)cc(C(=O)N3CCNC[C@H]3C(=O)NC(C)(C)C)c12 [Example 232, (S)-1-[6-(4-Hydroxy-phenyl)-3-methyl-1H-pyrazolo[3,4-b]pyridine-4-carbonyl]-piperazine-2-carboxylic acid tert-butylamide] | 95% | – |

The next lines start with results.

| inhibition at 1.14 µM | SMILES | % Inhibition |
| --- | --- | --- |
| 101% | Cc1n[nH]c2nc(-c3ccc(O)cc3)cc(C(=O)N3CCNC[C@@H]3C(C)C)c12 [Example 202, [6-(4-Hydroxy-phenyl)-3-methyl-1H-pyrazolo[3,4-b]pyridin-4-yl]-((S)-2-isopropyl-piperazin-1-yl)-methanone] | – |
| 71% | Cc1n[nH]c2nc(-c3ccc(O)cc3)cc(C(=O)N3CC[C@@H](C4(N)CC4)C3)c12 [Example 203, [(R)-3-(1-Amino-cyclopropyl)-pyrrolidin-1-yl]-[6-(4-hydroxy-phenyl)-3-methyl-1H-pyrazolo[3,4-b]pyridin-4-yl]-methanone] | – |
| 82% | Cc1n[nH]c2nc(-c3ccc(O)cc3)cc(C(=O)NC3CCNC4(CCC4)C3)c12 (centres unmarked) [Example 204, 6-(4-Hydroxy-phenyl)-3-methyl-1H-pyrazolo[3,4-b]pyridine-4-carboxylic acid (5-aza-spiro[3.5]non-8-yl)-amide] | – |
| 88% | Cc1n[nH]c2nc(-c3ccc(O)cc3)cc(C(=O)N[C@@H]3CCC(=O)NC3)c12 [Example 208, 6-(4-Hydroxy-phenyl)-3-methyl-1H-pyrazolo[3,4-b]pyridine-4-carboxylic acid ((R)-6-oxo-piperidin-3-yl)-amide] | – |
| 100% | CC[C@H]1CN(C(=O)c2cc(-c3ccc(O)cc3)nc3[nH]nc(C)c23)CCN1 [Example 210, ((S)-3-Ethyl-piperazin-1-yl)-[6-(4-hydroxy-phenyl)-3-methyl-1H-pyrazolo[3,4-b]pyridin-4-yl]-methanone] | – |
| 94% | COC[C@H]1CN(C(=O)c2cc(-c3ccc(O)cc3)nc3[nH]nc(C)c23)CCN1 [Example 212, [6-(4-Hydroxy-phenyl)-3-methyl-1H-pyrazolo[3,4-b]pyridin-4-yl]-((R)-3-methoxymethyl-piperazin-1-yl)-methanone] | – |
| 94% | CO[C@H]1CNC[C@@H]1NC(=O)c1cc(-c2ccc(O)cc2)nc2[nH]nc(C)c12 [Example 213, 6-(4-Hydroxy-phenyl)-3-methyl-1H-pyrazolo[3,4-b]pyridine-4-carboxylic acid ((3S,4S)-4-methoxy-pyrrolidin-3-yl)-amide] | – |
| 73% | Cc1n[nH]c2nc(-c3ccc(O)cc3)cc(C(=O)N[C@H]3[C@@H]4CNC[C@@H]43)c12 [Example 214, 6-(4-Hydroxy-phenyl)-3-methyl-1H-pyrazolo[3,4-b]pyridine-4-carboxylic acid (3-azabicyclo[3.1.0]hex-6-yl)-amide] | – |
| 92% | Cc1n[nH]c2nc(-c3ccc(O)cc3)cc(C(=O)NCC3CCNC3)c12 (centres unmarked) [Example 216, 6-(4-Hydroxy-phenyl)-3-methyl-1H-pyrazolo[3,4-b]pyridine-4-carboxylic acid (pyrrolidin-3-ylmethyl)-amide] | – |
| 85% | Cc1n[nH]c2nc(-c3ccc(O)cc3)cc(C(=O)NCCC3CCCN3C)c12 (centres unmarked) [Example 218, 6-(4-Hydroxy-phenyl)-3-methyl-1H-pyrazolo[3,4-b]pyridine-4-carboxylic acid [2-(1-methyl-pyrrolidin-2-yl)-ethyl]-amide] | – |
| 88% | Cc1n[nH]c2nc(-c3ccc(O)cc3)cc(C(=O)NC3CCN(C)CC3)c12 [Example 220, 6-(4-Hydroxy-phenyl)-3-methyl-1H-pyrazolo[3,4-b]pyridine-4-carboxylic acid (1-methyl-piperidin-4-yl)-amide] | – |
| 100% | Cc1n[nH]c2nc(-c3ccc(O)cc3)cc(C(=O)N3CCNC(C)C3)c12 (centres unmarked) [Example 221, [6-(4-Hydroxy-phenyl)-3-methyl-1H-pyrazolo[3,4-b]pyridin-4-yl]-(3-methyl-piperazin-1-yl)-methanone] | – |
| 97% | Cc1n[nH]c2nc(-c3ccc(O)cc3)cc(C(=O)N[C@@H]3CCCNC3)c12 [Example 222, 6-(4-Hydroxy-phenyl)-3-methyl-1H-pyrazolo[3,4-b]pyridine-4-carboxylic acid (R)-piperidin-3-ylamide] | – |
| 95% | Cc1n[nH]c2nc(-c3ccc(O)cc3)cc(C(=O)N3CCC4CNCC43)c12 (centres unmarked) [Example 226, (Hexahydro-pyrrolo[3,4-b]pyrrol-1-yl)-[6-(4-hydroxy-phenyl)-3-methyl-1H-pyrazolo[3,4-b]pyridin-4-yl]-methanone] | – |
| 91% | Cc1n[nH]c2nc(-c3ccc(O)cc3)cc(C(=O)N[C@@H]3[C@H]4CC[C@H](C4)[C@H]3CN)c12 [Example 228, 6-(4-Hydroxy-phenyl)-3-methyl-1H-pyrazolo[3,4-b]pyridine-4-carboxylic acid (3-aminomethyl-bicyclo[2.2.1]hept-2-yl)-amide] | – |
| 93% | Cc1n[nH]c2nc(-c3ccc(O)cc3)cc(C(=O)N3CCCC4CNCCC43)c12 (centres unmarked) [Example 230, [6-(4-Hydroxy-phenyl)-3-methyl-1H-pyrazolo[3,4-b]pyridin-4-yl]-(octahydro-[1,6]naphthyridin-1-yl)-methanone] | – |
| 84% | Cc1n[nH]c2nc(-c3ccc(O)cc3)cc(C(=O)NC3CCC(N)CC3)c12 (centres unmarked) [Example 231, 6-(4-Hydroxy-phenyl)-3-methyl-1H-pyrazolo[3,4-b]pyridine-4-carboxylic acid (4-amino-cyclohexyl)-amide] | – |
| 95% | Cc1n[nH]c2nc(-c3ccc(O)cc3)cc(C(=O)N3CCN[C@@H](C(C)C)C3)c12 [Example 233, [6-(4-Hydroxy-phenyl)-3-methyl-1H-pyrazolo[3,4-b]pyridin-4-yl]-((S)-3-isopropyl-piperazin-1-yl)-methanone] | – |
| 94% | Cc1n[nH]c2nc(-c3ccc(O)cc3)cc(C(=O)N3CC4(CCNCC4)C3)c12 [Example 234, (2,7-Diaza-spiro[3.5]non-2-yl)-[6-(4-hydroxy-phenyl)-3-methyl-1H-pyrazolo[3,4-b]pyridin-4-yl]-methanone] | – |
